Experimental data published in patent US20260305608A1, “MIXTURE COMBINATIONS FOR CROP PROTECTION” (ADAMA MAKHTESHIM LTD., priority 2023, published 2026).

Tests used:
B. tabaci = assay: Synergistic activity against B. tabaci, 3 days after nymph exposition (% control; Colby); type: in vivo, Bemisia tabaci
Method: (§1) A mixture combination were prepared by thoroughly mixing Tau-fluvalinate (weight %) with a crop protection chemical compound such as Flupyrimin, Isocycloseram, Methoxyfenozide and Garlic extract (weight %).
(§2) Different concentrations of each of the active ingredients may be applied to different species of insects. The percent controls are determined sometime after treatment.
(§3) A synergistic effect exists whenever the action of a combination of active ingredients is greater than the sum of the action of each of the ingredients alone. Therefore, a synergistic combination is a combination of active ingredients having an action that is greater than the sum of the action of each active ingredient alone, and a synergistically effective amount is an effective amount of a synergistic combination.
(§4) Colby's method is used to determine if synergy exists for a combination of active ingredients. According to Colby, the expected action (E) of active ingredients A+B is:
(§5) E=A+B−(AB/100) • where E=expected efficacy, A and B=the efficacy of two active ingredients A and B at a given dose.
(§6) When the percentage of control observed (O) for the combination is greater than the expected (E) percentage, there is a synergistic effect. The synergism ratio (R) is calculated as the ratio between the […].
(§7) The insecticidal compounds A (Tau fluvalinate) and B (mix partner) are formulated as equivalent compositions to eliminate the effects of differing formulation inerts on biological activity. Efficacy of the insecticidal compositions is evaluated with reference to a scale of 0% to 100% in comparison with untreated control plots. 0 means no damage and 100 means complete destruction of the harmful pests.
(§8) The experiments were conducted by applying either by synthesis/extraction or commercially available formulations of Tau fluvalinate and other mixture partners, alone or with their tank-mixed compositions with the same weight ratio. The compositions were diluted with water or some other suitable solvents to the stated concentration of the active compounds.
(§9) Each formulation with active ingredient is diluted with water or other suitable solvent(s) to the ppm (parts per million) level and biological efficacy trials on pests are conducted.

S. littoralis [1] = assay: Synergistic activity against S. littoralis, 2 days after larvae exposition (% control; Colby); type: in vivo, Spodoptera littoralis
Method: as §1, §2, §3, §4, §5, §6, §7, §8, §9

S. littoralis [2] = assay: Synergistic activity against S. littoralis, 3 days after larvae exposition (% control; Colby); type: in vivo, Spodoptera littoralis
Method: as §1, §2, §3, §4, §5, §6, §7, §8, §9

Row | SMILES | Observed % control (O) (B. tabaci; Table 4A, 0.2 ppm) [%] | Observed % control (O) (S. littoralis [1]; Table 4B, 8 ppm) [%] | Observed % control (O) (S. littoralis [2]; Table 3, 2 ppm) [%] | Observed % control (O) (S. littoralis [1]; Table 1B, 10 ppm) [%] | further results
1 | CCN1OC[C@@H](NC(=O)c2ccc(C3=NO[C@@](c4cc(Cl)c(F)c(Cl)c4)(C(F)(F)F)C3)cc2C)C1=O [Isocycloseram] | 25.5 | 12.2 |  |  | 
2 | COc1cccc(C(=O)NN(C(=O)c2cc(C)cc(C)c2)C(C)(C)C)c1C [Methoxyfenozide] |  |  | 70 |  | Observed % control (O) (S. littoralis [2]; Table 3, 1 ppm): 52.5%
3 | CC(C)C(Nc1ccc(C(F)(F)F)cc1Cl)C(=O)OC(C#N)c1cccc(Oc2ccccc2)c1 (mixture of isomers) [Tau- Fluvalinate, (RS)-α-Cyano-3-phenoxybenzyl N-(2-chloro-α,α,α-trifluoro-p-tolyl)-D-valinate] | 10.4 | 45 | 22.5 | 43 | Observed % control (O) (B. tabaci; Table 1A, 0.1 ppm): 14%; Observed % control (O) (B. tabaci; Table 2, 20 ppm): 28.1%; Observed % control (O) (S. littoralis [1]; Table 4B, 16 ppm): 62.5%; Observed % control (O) (S. littoralis [2]; Table 3, 0.2 ppm): 2.5%; Observed % control (O) (S. littoralis [2]; Table 3, 10 ppm): 67.5%
4 | O=C(/N=c1\ccccn1Cc1ccc(Cl)nc1)C(F)(F)F [Flupyrimin] |  |  |  | 0 | Observed % control (O) (S. littoralis [1]; Table 1B, 1 ppm): 0%; Observed % control (O) (S. littoralis [1]; Table 1B, 100 ppm): 18%
